# “Also recorded” adds a separate entry of the source.
# Assays:
# lymphoma cell lines = assay: Detection of apoptotic cells (Annexin V-FITC, flow cytometry); format: cell-based, human; details: 250 nM, 72 hrs; eight lymphoma cell lines
# Experimental: Apoptosis was assessed, on cells treated with DMSO or different doses of ST7612AA1, by Annexin V-FITC apoptosis detection kit (BD Biosciences), according to the manufacturer's recommendations, on a FACScan flow cytometer (BD Biosciences).
# [1] = system: Acute myeloid leukemia MV4;11; assay: In vitro proliferation assay (sulphorodamine B); format: cell-based; details: Homo sapiens, 72 h, mean ± S.E.M.
# HCT116 tumor xenografts = assay: Western blot of tumor xenografts after oral ST7612AA1; format: in vivo, nude mice; details: xenografts collected 24 h after the last oral administration; 80 mg/10 mL/kg qdx5/wx3w
# Experimental: In order to assess the in vivo effect of ST7612AA1 on the acetylation degree of α-tubulin and histones, and on the expression of other key proteins, HCT116 tumor xenografts (3 samples/group) were excised at different times after the last treatment, and then total protein lysates were prepared through the homogenization of tumor samples in lysis buffer containing 0.5% NP-40, supplemented with 10 μg/mL of protease inhibitor cocktail (Sigma Chemical Co., St. Louis, MO, USA). Determination of the protein concentration and Western Blotting analysis were finally performed as above described for the in vitro experiments. The antibodies used are listed in Supplementary Table 2.
# [2] = system: acetylation of alpha-tubulin in NCI-H460 NSCLC cells; assay: Western blot with densitometry, tubulin acetylation; format: cell-based, human; details: for Acetyl tub./tubulin: NCI-H460, vehicle 0,341
# Experimental: For assessing the in vitro effect of ST7612AA1 on acetylation of α-tubulin and histones, NSCLC cells were treated with the test compound at various concentrations (dose-response curve). SAHA 5 μM was used as reference inhibitor. Protein extraction, separation and immunoblotting were performed as previously described. Immunoreactive bands were finally subjected to densitometry analysis by a phosphoimaging system (STORM, Molecular Dynamics), and then the IC50 values were calculated by the “ALLFIT” computer program. The antibodies used are listed in Supplementary Table 2.
# NSCLC NCI-H460 = assay: In vitro proliferation assay (sulphorodamine B); format: cell-based; details: Homo sapiens, 72 h, mean ± S.E.M.
# Breast cancer MCF-7 = assay: In vitro proliferation assay; format: cell-based; details: Homo sapiens, MCF7, 72 h, mean ± S.E.M.
# Experimental: (§1) Anti-proliferative activity was first assessed on a panel of cell lines derived from solid tumors and hematological cancers and then on a large panel of cell lines derived from mature B-cell lymphomas. […] Lymphoma cells were seeded in 96-wells tissue culture plates in complete medium and were exposed to increasing concentrations of ST7612AA1 for 48 or 72 h; the anti-proliferative activity was assessed using 3-(4,5-dimethylthiazol-2-yl)-2,5-diphenyltetrazolium bromide (MTT). The drug potency was evaluated by means of the “ALLFIT” computer program and defined as IC50 (drug concentration required for 50% inhibition of cell survival).
# GCB-DLBCL model DOHH2 = assay: In vivo lymphoma xenograft model; parameters: species or system NOD-SCID mice; details: po at days 12, 13, 15, 16, 18, 19 after tumor injection; vs control mice
# Experimental: The in vivo experiment with lymphoma model was performed in the IOR laboratory according to study protocols approved by the local Cantonal Veterinary Authority (No. 5/2011). At day 1, tumors were established by injecting DOHH2 lymphoma cells (200 μL of PBS, 8×10^6 cells/mouse) into the left flanks of 5-weeks old female NOD-SCID mice (Harlan Laboratories). Tumor size was measured on regular basis and until tumors reached around […] in diameter (day 12). Then, treatments were conducted at day 12, 13, 15, 16, 18, 19. Tumors were measured at 12, 14, 17, 21, 25 days. Tumor volumes were calculated as described above. Mice were sacrificed when physical conditions became critical or when tumors reached a weight of about 0.5 gr. For comparison between a control and a treatment group, an unpaired Mann-Whitney's test was used. A P-value <0.05 was considered significant.
# ABC-DLBCL U2932 = assay: In vitro proliferation assay (MTT); format: cell-based; details: Homo sapiens, 72 h, mean ± S.E.M.
# Experimental: as §1
# GCB-DLBCL SUDHL-6 = assay: In vitro proliferation assay (MTT); format: cell-based; details: Homo sapiens, SU-DHL-6, 72 h, mean ± S.E.M.
# Experimental: as §1
# T-cell lymphoma HUT78 = assay: In vitro proliferation assay (MTT); format: cell-based; details: Homo sapiens, 72 h, mean ± S.E.M.
# Experimental: as §1
# GCB-DLBCL Karpas422 = assay: In vitro proliferation assay (MTT); format: cell-based; details: Homo sapiens, KARPAS-422, 72 h, mean ± S.E.M.
# Experimental: as §1
# GCB-DLBCL SUDHL-4 = assay: In vitro proliferation assay (MTT); format: cell-based; details: Homo sapiens, SU-DHL-4, 72 h, mean ± S.E.M.
# Experimental: as §1
# GCB-DLBCL DOHH2 = assay: In vitro proliferation assay (MTT); format: cell-based; details: Homo sapiens, DOHH-2, 72 h, mean ± S.E.M.
# Experimental: as §1
# GCB-DLBCL OCI-Ly7 = assay: In vitro proliferation assay (MTT); format: cell-based; details: Homo sapiens, 72 h, mean ± S.E.M.
# Experimental: as §1
# [3] = system: Splenic marginal zone lymphoma VL51; assay: In vitro proliferation assay (MTT); format: cell-based; details: Homo sapiens, 72 h, mean ± S.E.M.
# Experimental: as §1
# [4] = system: Splenic marginal zone lymphoma SSK41; assay: In vitro proliferation assay (MTT); format: cell-based; details: Homo sapiens, 72 h, mean ± S.E.M.
# Experimental: as §1
# ABC-DLBCL TMD8 = assay: In vitro proliferation assay (MTT); format: cell-based; details: Homo sapiens, 72 h, mean ± S.E.M.
# Experimental: as §1
# GCB-DLBCL OCI-Ly8 = assay: In vitro proliferation assay (MTT); format: cell-based; details: Homo sapiens, 72 h, mean ± S.E.M.
# Experimental: as §1
# GCB-DLBCL VAL = assay: In vitro proliferation assay (MTT); format: cell-based; details: Homo sapiens, 72 h, mean ± S.E.M.
# Experimental: as §1
# [5] = system: Splenic marginal zone lymphoma K1718; assay: In vitro proliferation assay (MTT); format: cell-based; details: Homo sapiens, 72 h, mean ± S.E.M.
# Experimental: as §1
# [6] = system: Mantle cell lymphoma Jeko-1; assay: In vitro proliferation assay (MTT); format: cell-based; details: Homo sapiens, 72 h, mean ± S.E.M.
# Experimental: as §1
# ABC-DLBCL OCI-Ly10 = assay: In vitro proliferation assay (MTT); format: cell-based; details: Homo sapiens, 72 h, mean ± S.E.M.
# Experimental: as §1
# [7] = system: Mantle cell lymphoma Granta-519; assay: In vitro proliferation assay (MTT); format: cell-based; details: Homo sapiens, 72 h, mean ± S.E.M.
# Experimental: as §1
# [8] = system: Mantle cell lymphoma REC-1; assay: In vitro proliferation assay (MTT); format: cell-based; details: Homo sapiens, Rec1, 72 h, mean ± S.E.M.
# Experimental: as §1
# [9] = system: Mantle cell lymphoma MAVER1; assay: In vitro proliferation assay (MTT); format: cell-based; details: Homo sapiens, 72 h, mean ± S.E.M.
# Experimental: as §1
compound,measurement,setting,value
CC(=O)SCCCCC[C@H](NC(=O)[C@H]1CCC(=O)N1)C(=O)Nc1ccccc1 [ST7612AA1],apoptosis (Annexin V positive cells),lymphoma cell lines,moderate apoptosis in three out of eight lymphoma cell lines
same,IC50,[1],190 ± 20 nM
same,HSP70 levels,HCT116 tumor xenografts,significant increase
same,HSP90 protein levels,HCT116 tumor xenografts,dramatic decrease
same,acetylated α-tubulin levels,HCT116 tumor xenografts,increased levels
same,pan H3 acetylation,HCT116 tumor xenografts,strong induction
same,Acetyl tub./tubulin,"[2]; 0,2 µM","1,181"
same,Acetyl tub./tubulin,"[2]; 0,04 µM","0,649"
same,Acetyl tub./tubulin,[2]; 1 µM,"2,012"
same,Acetyl tub./tubulin,"[2]; 0,008 µM","0,588"
same,IC50,"[2]; Homo sapiens, NCI-H460, 3 h exposure, Western blot densitometry, read-out: IC50 for increasing the acetylation of tubulin",200 nM
same,IC50,NSCLC NCI-H460,66 ± 10 nM
same,IC50,Breast cancer MCF-7,190 nM
same,tumor progression / tumor volumes,GCB-DLBCL model DOHH2,decreased tumor volumes; also recorded: significant delay in tumor progression
same,IC50,ABC-DLBCL U2932,800 nM
same,IC50,GCB-DLBCL SUDHL-6,630 nM
same,IC50,T-cell lymphoma HUT78,480 ± 20 nM
same,IC50,GCB-DLBCL Karpas422,2660 nM
same,IC50,GCB-DLBCL SUDHL-4,980 nM
same,IC50,GCB-DLBCL DOHH2,46 ± 10 nM
same,IC50,GCB-DLBCL OCI-Ly7,560 nM
same,IC50,[3],120 nM
same,IC50,[4],260 nM
same,IC50,ABC-DLBCL TMD8,100 ± 30 nM
same,IC50,GCB-DLBCL OCI-Ly8,240 nM
same,IC50,GCB-DLBCL VAL,2360 nM
same,IC50,[5],100 ± 10 nM
same,IC50,[6],250 ± 10 nM
same,IC50,ABC-DLBCL OCI-Ly10,260 nM
same,IC50,[7],470 nM
same,IC50,[8],550 nM
same,IC50,[9],390 nM

# Reference: paper PMC4467398, “Preclinical antitumor activity of ST7612AA1: a new oral thiol-based histone deacetylase (HDAC) inhibitor” (Oncotarget, 2014)
